In US20190345202A1, “ANDROGEN RECEPTOR ANTISENSE OLIGONUCLEOTIDES” (OliPass Corporation, priority 2016, published 2019):
[C(1O2)] = PNA monomer with modified cytosine C(1O2), structure; [A(5)] = PNA monomer with modified adenine A(5), structure; {Fethoc} = Fethoc group on PNA N-terminus; {NH2} = C-terminal amide

Legend:
10-mer complementary DNA = assay: Tm of duplex between PNA and 10-mer complementary DNA (UV/Vis); format: binding; conditions: 4 μM PNA and 4 μM 10-mer DNA, aqueous buffer pH 7.16, 10 mM sodium phosphate, 100 mM NaCl
Experimental: The PNA derivatives in Table 1 were evaluated for their binding affinity for 10-mer DNAs complementarily targeting either the N-terminal or C-terminal. The binding affinity was assessed by Tm value for the duplex between PNA and 10-mer complementary DNA. The duplex between PNA derivatives in Table 1 and fully complementary DNAs show Tm values too high to be reliably determined in aqueous buffer solution, since the buffer solution tends to boil off during the Tm measurement.
Tm values were determined on an UV/Vis spectrometer as follows. A mixed solution of 4 μM PNA oligomer and 4 μM complementary 10-mer DNA in 4 mL aqueous buffer (pH 7.16, 10 mM sodium phosphate, 100 mM NaCl) in 15 mL polypropylene falcon tube was incubated at 90° C. for a minute and slowly cooled down to ambient temperature over several minutes. Then the solution was transferred into a 3 mL quartz UV cuvette equipped with an air-tight cap, and subjected to a Tm measurement at 260 nm on an Agilent 8453 UV/Visible spectrophotometer or a similar one as described in the prior art [PCT/KR2009/001256] or with minor modifications. The 10-mer complementary DNAs for Tm measurement were purchased from Bioneer (www.bioneer.com, Dajeon, Republic of Korea) and used without further purification.

C57BL/6 mice = assay: Hair growth in C57BL/6 mice upon topical administration (brightness score, hair weight); format: in vivo, mouse
Experimental: (§1) [Hair Removal and Grouping] In Day 0, 7 week old female C57BL/6 mice were anesthetized with zoletil/rompun, and the hair in the back was cut and removed with a clipper and wax, respectively. Mice with flawless (i.e. spotless) hair removal were selected and randomly assigned into three groups (7 animals per group).
[Topical Administration] The topical solutions of “ASO 1” were prepared by diluting a mother stock solution of “ASO 1” to 0.2 fM or 1 fM in aqueous 30% (v/v) ethanol supplemented with 3% (v/v) glycerin. About 100 μL of 0 (negative control), 0.2, or 1 fM “ASO 1” was topically administered in the back of each animal using a cotton ball in Days 3, 7, 10, and 14.
[Digital Image Scoring for Hair Growth] For scoring the hair growth, the animals were anesthetized and photographed by group as shown in FIG. 11A using a digital camera at a fixed value of exposure time and illumination. The digital image for the area of the hair removal for each animal was selected and digitally scored for the average brightness over the selected area using “ImageJ” program. Lower brightness score is taken as faster hair growth. Brightness scores of individual animals were combined by group, and subjected to statistical analysis by student's t-test. FIG. 11B summarizes the relative brightness scores of the ASO treated groups against the control group. The relative brightness score tended to decrease with days in the treatment groups. […] Thus, “ASO 1” was concluded to promote hair growth upon topical administrations at 1 fM.
[Scoring by Hair Weight] In Day 21, the animals were anesthetized and the hair in the back was cut with a clipper. The hair samples from individual animals were combined by group, and weighed to evaluate the hair growth between Day 0 and Day 21. The average hair weight was 70.5 mg/animal for the control group, 90.8 mg/animal for the 0.2 fM treatment group, and 94.4 mg/animal for the 1 fM treatment group. Thus “ASO 1” was concluded to promote hair growth upon topical administrations at 0.2 fM as well as 1 fM.
as §1, with “(10” for “(7”
[Topical Administration] The topical solutions of “ASO 5” were prepared by diluting a mother stock solution of “ASO 5” to 1, 5, or 25 fM in aqueous 30% (v/v) ethanol supplemented with 3% (v/v) glycerin. About 100 μL of each ASO solution or vehicle (negative control) was topically administered to in the back of an animal using a cotton ball in Days 3, 7, 10, 14 and 21.
Following the shaving in Day 21, the animals received a single topical administration of either vehicle or “ASO 5” at 1 fM, 5 fM, or 25 fM. In Day 53, the hair in the back was collected by shaving with a clipper to determine the total amount of hair growth between Days 21 and 53. The average hair weights of the 1 fM, 5 fM, and 25 fM groups were 1,630%, 1,450%, and 771% of the non-treated group, respectively. Thus “ASO 5” was concluded to promote hair growth upon topical administrations at 1 to 25 fM.
as §1, with “(9” for “(7”
[Topical Administration] The topical solutions of “ASO 10” were prepared by diluting a mother stock solution of “ASO 10” to 1, 5, or 25 fM in aqueous 30% (v/v) ethanol supplemented with 3% (v/v) glycerin. About 100 μL of each ASO solution or vehicle (negative control) was topically administered to in the back of an animal using a cotton ball in Day 2.

human AR mRNA = assay: qPCR (SYBR Green) of AR mRNA level in MCF7 cells; conditions: 5 hours

With “Fethoc-C(1O2)TT-A(5)CC-A(5)GG(6)-CA(5)A-NH2 (antisense CTTACCAGGCAA; N-Fethoc, C-terminal amide, chemistry not fully specified) [ASO 10]” the “Tm Value, 10-mer DNA against C-Terminal” value (10-mer complementary DNA) was 78.4 °C, the “Tm Value, 10-mer DNA against N-Terminal” value (10-mer complementary DNA) was 84.4 °C and the average hair weight (C57BL/6 mice; 1 fM topical in Day 2, hair growth between Day 0 and Day 27) was 115 % of the non-treated group. The average hair weight (C57BL/6 mice; 5 fM topical in Day 2, hair growth between Day 0 and Day 27) was 114 % of the non-treated group, the average hair weight (C57BL/6 mice; 25 fM topical in Day 2, hair growth between Day 0 and Day 27) was 119 % of the non-treated group and the “brightness score vs non-treatment group” value (C57BL/6 mice; Day 27, 1 fM and 5 fM groups, topical in Day 2) was “significantly lower”. For the same substance, the “decrease of relative expression level of exons 4-6” value (human AR mRNA; 1 zM to 1,000 zM) was 60-80%.

For “Fethoc-C(1O2)TT-A(5)CC-A(5)GG-C(1O2)AA(5)-G-NH2 (antisense CTTACCAGGCAAG; all peptide nucleic acid (PNA), [C(1O2)] at 1, 10, [A(5)] at 4, 7, 12, 5' {Fethoc}, 3' {NH2}; peptide nucleic acid, written N to C terminus) [ASO 5]”, the “Tm Value, 10-mer DNA against C-Terminal” value (10-mer complementary DNA) was 81.3 °C, the “Tm Value, 10-mer DNA against N-Terminal” value (10-mer complementary DNA) was 86.1 °C and the average hair weight (C57BL/6 mice; 1 fM topical, hair growth between Day 0 and Day 21) was 293 % of the negative control group. For the same substance, the average hair weight (C57BL/6 mice; 1 fM, single topical administration after shaving in Day 21, hair growth between Days 21 and 53) was 1,630 % of the non-treated group, the average hair weight (C57BL/6 mice; 5 fM topical, hair growth between Day 0 and Day 21) was 306 % of the negative control group and the average hair weight (C57BL/6 mice; 5 fM, single topical administration after shaving in Day 21, hair growth between Days 21 and 53) was 1,450 % of the non-treated group. The average hair weight (C57BL/6 mice; 25 fM topical, hair growth between Day 0 and Day 21) was 278 % of the negative control group, the average hair weight (C57BL/6 mice; 25 fM, single topical administration after shaving in Day 21, hair growth between Days 21 and 53) was 771 % of the non-treated group and the “brightness score vs non-treated group” value (C57BL/6 mice; Day 17, 1 fM and 25 fM groups, topical in Days 3, 7, 10, 14 and 21) was “significantly lower”. The “exon message levels (exons 4-6) relative to negative control” value (human AR mRNA; 1 aM) was “rebounded to near the levels of the negative control” and the “decrease of exon message levels (exons 4-6)” value (human AR mRNA; 100 zM) was 50 to 60%.
